According to the supplement of paper PMC10307832:

Experiments:
Test in all cases: relative viability (nuclei count vs DMSO), 5 days (fraction); higher = more cells survive
Sulindac + Dasatinib = compound: CC1=C(CC(=O)O)c2cc(F)ccc2/C1=C\c1ccc([S+](C)[O-])cc1 [Sulindac] + Cc1nc(Nc2ncc(C(=O)Nc3c(C)cccc3Cl)s2)cc(N2CCN(CCO)CC2)n1 [Dasatinib] (partner 0.075 µM)
Summary of the method: (§1)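 Nuclei were stained with Hoechst during a one-step fixation (final 0.05% Triton X-100, 1% formaldehyde, 1 ug/ml Hoechst) carried out 5 days after dosing, then counted on 4× images. The cells, lung cancer lines in 1536-well plates, had been dosed by pin tool the day after seeding with one drug alone or a fixed anchor-drug dose plus five library-drug doses (not always all listed) in √10 steps. Relative viability is the nuclei count in treated wells divided by that in vehicle wells, and each value is the median of duplicate plates.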

[1] = compound: CN[C@@H]1C[C@H]2O[C@@](C)([C@@H]1OC)n1c3ccccc3c3c4c(c5c6ccccc6n2c5c31)C(=O)NC4 [Staurosporine] + N=C(N)NC(=N)NCCc1ccccc1 [Phenformin] (partner 250 µM)
Summary of the method: as §1

Sulindac + OSI-027 = compound: CC1=C(CC(=O)O)c2cc(F)ccc2/C1=C\c1ccc([S+](C)[O-])cc1 [Sulindac] + COc1cccc2cc(-c3nc([C@H]4CC[C@H](C(=O)O)CC4)n4ncnc(N)c34)[nH]c12 [OSI-027] (partner 0.5 µM)
Summary of the method: as §1

[2] = compound: CN[C@@H]1C[C@H]2O[C@@](C)([C@@H]1OC)n1c3ccccc3c3c4c(c5c6ccccc6n2c5c31)C(=O)NC4 [Staurosporine] + CC(=O)Nc1cccc(-n2c(=O)n(C3CC3)c(=O)c3c(Nc4ccc(I)cc4F)n(C)c(=O)c(C)c32)c1 [Trametinib] (partner 0.02 µM)
Summary of the method: as §1

Cell Line | relative viability (Sulindac + Dasatinib; first compound 0.08 µM) | relative viability (Sulindac + Dasatinib; first compound 0.253 µM) | relative viability (Sulindac + Dasatinib; first compound 0.8 µM) | relative viability (Sulindac + Dasatinib; first compound 2.53 µM) | relative viability (Sulindac + Dasatinib; first compound 8 µM) | relative viability ([1]; first compound 0.005 µM) | relative viability ([1]; first compound 0.01581 µM) | relative viability ([1]; first compound 0.05 µM) | relative viability ([1]; first compound 0.1581 µM) | relative viability ([1]; first compound 0.5 µM) | relative viability (Sulindac + OSI-027; first compound 0.08 µM) | relative viability (Sulindac + OSI-027; first compound 0.253 µM) | relative viability (Sulindac + OSI-027; first compound 0.8 µM) | relative viability (Sulindac + OSI-027; first compound 2.53 µM) | relative viability (Sulindac + OSI-027; first compound 8 µM) | relative viability ([2]; first compound 0.005 µM) | relative viability ([2]; first compound 0.01581 µM) | relative viability ([2]; first compound 0.05 µM) | relative viability ([2]; first compound 0.1581 µM) | relative viability ([2]; first compound 0.5 µM)
NCI-H647 | 0.257 | 0.201 | 0.126 | 0.194 | 0.247 | 0.236 | 0.0676 | 0.0846 | 0.0492 | 0.0636 | 0.63 | 0.947 | 0.487 | 0.677 | 0.683 | 0.295 | 0.151 | 0.0868 | 0.0601 | 0.0349
NCI-H1650 | 0.304 | 0.353 | – | 0.321 | 0.341 | 0.217 | 0.147 | 0.109 | 0.108 | 0.0714 | 0.452 | 0.567 | – | 0.45 | 0.734 | 0.501 | 0.364 | 0.187 | 0.112 | 0.0438
NCI-H1355 | 0.872 | 0.756 | – | 0.643 | 0.795 | 0.369 | 0.165 | 0.255 | 0.168 | 0.162 | 0.403 | 0.454 | – | 0.38 | 0.393 | 0.279 | 0.255 | 0.232 | 0.22 | 0.147
NCI-H1975 | 0.411 | 0.315 | 0.345 | 0.353 | 0.375 | 0.208 | 0.135 | 0.136 | 0.103 | 0.0912 | 0.93 | 0.762 | 0.489 | 0.759 | 0.835 | 0.18 | 0.141 | 0.139 | 0.121 | 0.1
BEN | 0.311 | 0.317 | 0.314 | 0.288 | 0.384 | 0.247 | – | 0.211 | 0.197 | 0.184 | 0.312 | 0.271 | 0.29 | 0.321 | 0.301 | 1.21 | 1.2 | 0.827 | 0.729 | 0.439
NCI-H322M | 0.26 | 0.244 | 0.268 | 0.244 | 0.275 | – | 0.348 | – | 0.289 | 0.248 | 0.6 | 0.534 | 0.442 | 0.557 | 0.602 | 0.518 | 0.418 | 0.342 | 0.45 | 0.432
SK-MES-1 | 0.336 | 0.367 | 0.366 | 0.352 | 0.331 | 0.345 | 0.267 | 0.185 | 0.132 | 0.219 | 0.781 | 0.823 | 0.55 | 0.609 | 0.631 | 0.333 | 0.281 | 0.265 | 0.211 | 0.139
HOP-62 | 0.696 | 0.652 | – | 0.718 | 0.646 | 0.426 | 0.232 | 0.133 | 0.102 | 0.1 | 0.825 | 0.976 | – | 0.946 | 0.91 | 0.359 | 0.196 | 0.184 | 0.141 | 0.102
